Patent US10202347B2, “Compound, production method therefor, and use of said compound” (MICROBIAL CHEMISTRY RESEARCH FOUNDATION, priority 2013, dated 2019)

System: human stomach cancer cells MKN-74 and normal stromal cells derived from the human stomach, Hs738
Assay: Anti-cancer activity in vivo, Test Example 2-2: MKN-74 and stromal cells Hs738, subcutaneous tumor in nude mice
Set-up: species or system BALB/c nu/nu nude mice
Conditions: tumor transplanted together with stromal cells Hs738, intravenous administration at 12.5 mg/kg, FIGS. 1C, 1D
Description: A test was performed in the same manner as in Test Example 2-1 except that the use of the human stomach cancer cells MKN-74 alone in Test Example 2-1 was changed to use of the human stomach cancer cells MKN-74 and the normal stromal cells derived from the human stomach, Hs738.
Note that, a cell liquid and inoculation of the cell liquid to mice were as follows.
Cultured human stomach cancer cells MKN-74 and normal stromal cells derived from the human stomach, Hs738 were respectively trypsinized to be peeled off from the culture dishes. The above human stomach cancer cells MKN-74 (8×10^6 cells) and the above normal stromal cells derived from the human stomach, Hs738 (8×10^6 cells) were dispersed in 0.3 mL DMEM containing 10% FBS and mixed with 0.5 mL growth factor-reduced Matrigel (product of BD Biosciences Co.).
The above mixed cell liquid (0.1 mL) (a mixture of cancer cells: 1×10^6 cells, and stromal cells: 1×10^6 cells) was subcutaneously inoculated to the left groin region of the above mice.

CCCCCCCc1c(C)c(=O)c2ccccc2n1CN=C(SC)SC [Structural Formula (13)]
tumor suppression (tumor volume, tumor weight Day 21): significant suppression
